Test results published in patent publication US20230079819A1, “COMPOUNDS AND USES THEREOF” (Foghorn Therapeutics Inc., priority 2019, published 2023).

Tests used:
BRM = target: T1, BRM (Homo sapiens, UniProt P51531); assay: ATPase catalytic activity of BRM, ADP-Glo in vitro biochemical assay; settings: ATPase catalytic activity, 30 nM BRM, 400 μM ATP, read-out: BRM IP50 (μM)*
T1 construct: made in house; host or cells: High Five insect cells

BRG-1 = target: T2, BRG-1 (Homo sapiens, UniProt P51532); assay: ATPase catalytic activity of BRG-1, ADP-Glo in vitro biochemical assay; settings: ATPase catalytic activity, 30 nM BRG-1, 400 μM ATP, read-out: BRG1 IP50 (μM)*
T2 construct: made in house; host or cells: High Five insect cells
T2 sequence (P51532 whole entry): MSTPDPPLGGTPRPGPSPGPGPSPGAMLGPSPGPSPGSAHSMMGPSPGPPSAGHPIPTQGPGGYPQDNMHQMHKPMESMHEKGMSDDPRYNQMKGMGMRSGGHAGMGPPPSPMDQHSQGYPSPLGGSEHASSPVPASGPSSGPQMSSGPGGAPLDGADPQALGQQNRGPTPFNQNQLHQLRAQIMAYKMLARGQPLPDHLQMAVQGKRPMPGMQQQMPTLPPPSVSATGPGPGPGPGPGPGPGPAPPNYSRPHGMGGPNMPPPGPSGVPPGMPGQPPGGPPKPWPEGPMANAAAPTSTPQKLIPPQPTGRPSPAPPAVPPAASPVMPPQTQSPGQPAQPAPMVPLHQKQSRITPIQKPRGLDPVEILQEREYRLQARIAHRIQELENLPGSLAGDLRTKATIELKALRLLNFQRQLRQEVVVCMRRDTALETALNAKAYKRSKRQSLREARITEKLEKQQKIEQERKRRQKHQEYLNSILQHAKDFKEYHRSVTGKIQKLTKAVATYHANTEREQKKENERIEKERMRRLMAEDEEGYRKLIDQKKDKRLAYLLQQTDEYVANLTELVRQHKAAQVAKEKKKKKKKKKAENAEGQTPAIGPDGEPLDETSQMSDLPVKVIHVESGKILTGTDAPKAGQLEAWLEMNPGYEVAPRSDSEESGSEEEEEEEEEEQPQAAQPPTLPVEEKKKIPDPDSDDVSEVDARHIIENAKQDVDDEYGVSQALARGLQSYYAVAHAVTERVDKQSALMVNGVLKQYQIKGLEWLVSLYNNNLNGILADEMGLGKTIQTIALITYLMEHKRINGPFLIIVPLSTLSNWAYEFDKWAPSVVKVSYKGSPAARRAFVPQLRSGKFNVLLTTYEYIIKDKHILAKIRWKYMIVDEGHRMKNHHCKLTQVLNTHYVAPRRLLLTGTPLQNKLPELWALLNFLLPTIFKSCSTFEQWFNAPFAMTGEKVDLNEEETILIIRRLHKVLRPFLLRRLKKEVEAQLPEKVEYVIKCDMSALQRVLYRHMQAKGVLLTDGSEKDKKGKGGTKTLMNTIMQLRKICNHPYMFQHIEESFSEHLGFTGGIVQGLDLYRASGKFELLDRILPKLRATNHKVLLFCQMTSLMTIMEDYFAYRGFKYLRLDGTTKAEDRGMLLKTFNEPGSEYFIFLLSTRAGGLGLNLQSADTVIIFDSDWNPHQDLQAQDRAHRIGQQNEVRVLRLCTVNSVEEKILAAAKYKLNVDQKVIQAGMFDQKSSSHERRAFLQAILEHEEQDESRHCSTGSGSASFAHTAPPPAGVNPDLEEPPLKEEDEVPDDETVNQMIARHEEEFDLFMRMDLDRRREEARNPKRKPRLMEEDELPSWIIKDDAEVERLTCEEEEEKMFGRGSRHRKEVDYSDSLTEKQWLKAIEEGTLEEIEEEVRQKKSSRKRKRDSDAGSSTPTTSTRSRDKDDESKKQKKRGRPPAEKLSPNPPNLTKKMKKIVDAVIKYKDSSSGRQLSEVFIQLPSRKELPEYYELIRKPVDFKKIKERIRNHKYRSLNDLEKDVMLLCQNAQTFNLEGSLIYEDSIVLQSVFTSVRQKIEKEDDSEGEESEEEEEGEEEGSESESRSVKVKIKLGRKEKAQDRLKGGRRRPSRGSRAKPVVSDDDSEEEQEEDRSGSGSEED

T1 sequence (P51531 whole entry): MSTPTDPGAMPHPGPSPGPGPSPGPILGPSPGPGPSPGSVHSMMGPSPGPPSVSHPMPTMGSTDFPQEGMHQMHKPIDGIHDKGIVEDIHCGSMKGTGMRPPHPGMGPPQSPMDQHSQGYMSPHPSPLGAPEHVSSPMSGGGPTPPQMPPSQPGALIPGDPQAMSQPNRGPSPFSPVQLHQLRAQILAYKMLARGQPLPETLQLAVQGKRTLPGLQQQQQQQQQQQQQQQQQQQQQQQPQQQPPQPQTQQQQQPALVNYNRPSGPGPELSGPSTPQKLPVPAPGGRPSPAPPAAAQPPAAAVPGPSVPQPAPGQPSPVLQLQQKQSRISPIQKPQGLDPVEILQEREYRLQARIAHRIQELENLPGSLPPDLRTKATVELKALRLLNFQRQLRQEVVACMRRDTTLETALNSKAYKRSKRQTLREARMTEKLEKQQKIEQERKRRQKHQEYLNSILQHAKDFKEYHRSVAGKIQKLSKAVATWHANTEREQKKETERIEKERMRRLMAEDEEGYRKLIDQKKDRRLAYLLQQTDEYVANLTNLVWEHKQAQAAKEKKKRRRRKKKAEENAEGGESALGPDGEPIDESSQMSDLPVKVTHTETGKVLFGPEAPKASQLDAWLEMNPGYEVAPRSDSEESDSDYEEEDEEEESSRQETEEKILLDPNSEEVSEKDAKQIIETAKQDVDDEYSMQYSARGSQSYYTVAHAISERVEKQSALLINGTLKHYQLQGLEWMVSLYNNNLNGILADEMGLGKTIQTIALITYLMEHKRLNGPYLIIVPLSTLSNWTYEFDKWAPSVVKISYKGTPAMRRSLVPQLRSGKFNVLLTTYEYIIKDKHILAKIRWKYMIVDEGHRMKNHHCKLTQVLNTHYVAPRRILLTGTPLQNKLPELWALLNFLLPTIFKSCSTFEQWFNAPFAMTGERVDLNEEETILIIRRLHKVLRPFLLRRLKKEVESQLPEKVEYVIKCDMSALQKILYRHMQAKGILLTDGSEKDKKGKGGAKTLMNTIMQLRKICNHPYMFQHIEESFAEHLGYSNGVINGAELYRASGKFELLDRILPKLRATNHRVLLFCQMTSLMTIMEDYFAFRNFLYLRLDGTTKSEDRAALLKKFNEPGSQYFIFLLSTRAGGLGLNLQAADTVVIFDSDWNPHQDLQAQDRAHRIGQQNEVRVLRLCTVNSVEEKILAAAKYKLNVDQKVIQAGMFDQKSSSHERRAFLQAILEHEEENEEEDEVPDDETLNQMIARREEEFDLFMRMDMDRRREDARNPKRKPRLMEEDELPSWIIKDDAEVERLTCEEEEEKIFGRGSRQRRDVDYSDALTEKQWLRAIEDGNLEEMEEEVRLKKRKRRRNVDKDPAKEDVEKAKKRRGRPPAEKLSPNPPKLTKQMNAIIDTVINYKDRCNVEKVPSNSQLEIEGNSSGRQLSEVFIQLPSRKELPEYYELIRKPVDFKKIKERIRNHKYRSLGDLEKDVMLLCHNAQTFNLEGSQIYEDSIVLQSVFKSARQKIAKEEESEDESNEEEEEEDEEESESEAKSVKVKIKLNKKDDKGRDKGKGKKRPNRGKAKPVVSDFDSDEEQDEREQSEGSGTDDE

SMILES | IC50 (BRM) [µM] | IC50 (BRG-1) [µM]
CS(=O)(=O)n1ccc(C(=O)NCC(=O)Nc2nc(-c3cccc(N4CCC[C@H](C#N)C4)c3)cs2)c1 [Compound 197] | < 0.01 | > 0.01
CO[C@H]1CN(c2cccc(-c3csc(NC(=O)CNC(=O)c4ccn(S(C)(=O)=O)c4)n3)c2)C[C@H]1OC [Compound 199] | > 0.01 | > 0.01
COC[C@H]1CCN(c2cccc(-c3csc(NC(=O)CNC(=O)c4ccn(S(C)(=O)=O)c4)n3)c2)C1 [Compound 200] | > 0.01 | > 0.01
COC[C@@H]1CCN(c2cccc(-c3csc(NC(=O)CNC(=O)c4ccn(S(C)(=O)=O)c4)n3)c2)C1 [Compound 201] | < 0.01 | > 0.01
CS(=O)(=O)n1ccc(C(=O)NCC(=O)Nc2nc(-c3cccc(N4CCC5(CC4)COC5)c3)cs2)c1 [Compound 202] | > 0.01 | > 0.01
CC1(C)CN(c2cccc(-c3csc(NC(=O)CNC(=O)c4ccn(S(C)(=O)=O)c4)n3)c2)CC(C)(C)O1 [Compound 203] | > 0.01 | > 0.01
CS(=O)(=O)n1ccc(C(=O)NCC(=O)Nc2nc(-c3cccc(N4CCCC5(COC5)C4)c3)cs2)c1 [Compound 204] | > 0.01 | > 0.01
C[C@]1(O)CCCN(c2cccc(-c3csc(NC(=O)CNC(=O)c4ccn(S(C)(=O)=O)c4)n3)c2)C1 [Compound 205] | > 0.01 | > 0.01
C[C@@]1(O)CCCN(c2cccc(-c3csc(NC(=O)CNC(=O)c4ccn(S(C)(=O)=O)c4)n3)c2)C1 [Compound 206] | < 0.01 | > 0.01
CS(=O)(=O)n1ccc(C(=O)NCC(=O)Nc2nc(-c3cccc(N4C[C@H]5C[C@H]5C4)c3)cs2)c1 [Compound 207] | > 0.01 | > 0.01
CS(=O)(=O)n1ccc(C(=O)NCC(=O)Nc2nc(-c3cccc(N4CCC[C@H](F)C4)c3)cs2)c1 [Compound 208] | > 0.01 | > 0.01
CCS(=O)(=O)n1ccc(C(=O)NCC(=O)Nc2nc(-c3cccc(N4CCC(O)CC4)c3)cs2)c1 [Compound 209] | > 0.01 | > 0.01
CS(=O)(=O)n1ccc(C(=O)NCC(=O)Nc2nc(-c3cccc(N4CCCOCC4)c3)cs2)c1 [Compound 210] | > 0.01 | > 0.01
CS(=O)(=O)n1ccc(C(=O)NCC(=O)Nc2nc(-c3cccc(N4CCC[C@@H](C#N)C4)c3)cs2)c1 [Compound 211] | > 0.01 | > 0.01
CS(=O)(=O)n1ccc(C(=O)NCC(=O)Nc2nc(-c3cccc(N4CC(O)C4)c3)cs2)c1 [Compound 212] | < 0.01 | < 0.01
CS(=O)(=O)n1ccc(C(=O)NCC(=O)Nc2nc(-c3cccc(N4CCC[C@@H](F)C4)c3)cs2)c1 [Compound 213] | > 0.01 | > 0.01
CS(=O)(=O)n1ccc(C(=O)NCC(=O)Nc2nc(-c3cccc(N4CC5CC4CO5)c3)cs2)c1 (stereo not shown) [Compound 214] | > 0.1 | > 0.1
CS(=O)(=O)n1ccc(C(=O)NCC(=O)Nc2nc(-c3cccc(N4CCC[C@@H](O)C4)c3)cs2)c1 [Compound 215] | > 0.01 | > 0.01
CS(=O)(=O)n1ccc(C(=O)NCC(=O)Nc2nc(-c3cccc(N4CCC(C#N)CC4)c3)cs2)c1 [Compound 216] | > 0.01 | > 0.01
CC(C)(C(=O)O)n1ccc(-c2cccc(-c3csc(NC(=O)CNC(=O)c4ccn(S(C)(=O)=O)c4)n3)c2)n1 [Compound 217, 2-methyl-2-[3-[3-[2-[[2-[(1-methylsulfonylpyrrole-3-carbonyl)amino]acetyl]amino]thiazol-4-yl]phenyl]pyrazol-1-yl]propanoic acid] | > 0.01 | > 0.01
CS(=O)(=O)n1ccc(C(=O)NCC(=O)Nc2nc(-c3cccc(-c4ccn(CC(=O)O)n4)c3)cs2)c1 [Compound 218] | > 0.01 | > 0.01
C[C@H]1CN(c2cccc(-c3csc(NC(=O)CNC(=O)c4ccn(S(C)(=O)=O)c4)n3)c2)CC[C@H]1O [Compound 219] | > 0.01 | > 0.01
CN1CCN(c2cccc(-c3csc(NC(=O)CNC(=O)c4ccn(S(C)(=O)=O)c4)n3)c2)CC1=O [Compound 220] | > 0.01 | > 0.01
C[C@@H]1CN(c2cccc(-c3csc(NC(=O)CNC(=O)c4ccn(S(=O)(=O)N(C)C)c4)n3)c2)C[C@H](C)O1 [Compound 221] | > 0.01 | > 0.01
COC1CC2(C1)CN(c1cccc(-c3csc(NC(=O)CNC(=O)c4ccn(S(C)(=O)=O)c4)n3)c1)C2 [Compound 222] | > 0.01 | > 0.1
CS(=O)(=O)n1ccc(C(=O)NCC(=O)Nc2nc(-c3cccc(N4C[C@H]5COC[C@H]5C4)c3)cs2)c1 [Compound 223] | > 0.01 | > 0.01
CO[C@H]1CCN(c2cccc(-c3csc(NC(=O)CNC(=O)c4ccn(S(C)(=O)=O)c4)n3)c2)C1 [Compound 224] | > 0.01 | > 0.01

Continued, values first:

IC50 (BRM) [µM] | IC50 (BRG-1) [µM] | SMILES
> 0.01 | > 0.01 | CS(=O)(=O)n1ccc(C(=O)NCC(=O)Nc2nc(-c3cccc(N4CCC(F)(F)C4)c3)cs2)c1 [Compound 225]
< 0.01 | > 0.01 | CO[C@@H]1CCN(c2cccc(-c3csc(NC(=O)CNC(=O)c4ccn(S(C)(=O)=O)c4)n3)c2)C1 [Compound 226]
> 0.01 | > 0.01 | CS(=O)(=O)n1ccc(C(=O)NCC(=O)Nc2nc(-c3cccc(N4CC(N5CCOCC5)C4)c3)cs2)c1 [Compound 227]
< 0.01 | > 0.01 | CCS(=O)(=O)n1ccc(C(=O)NCC(=O)Nc2nc(-c3cccc(N4C[C@@H](C)O[C@@H](C)C4)c3)cs2)c1 [Compound 228]
> 0.1 | > 0.1 | C[C@@H]1CN(c2cccc(-c3csc(NC(=O)CNC(=O)c4ccn(C5COC5)c4)n3)c2)C[C@H](C)O1 [Compound 229]
> 0.01 | > 0.1 | CS(=O)(=O)n1ccc(C(=O)NCC(=O)Nc2nc(-c3cccc(N4CC5CC(C4)O5)c3)cs2)c1 [Compound 230]
> 0.01 | > 0.01 | CS(=O)(=O)n1ccc(C(=O)NCC(=O)Nc2nc(-c3cccc(N4CCCC4)c3)cs2)c1 [Compound 231]
> 0.01 | > 0.01 | C[C@H]1CCCN(c2cccc(-c3csc(NC(=O)CNC(=O)c4ccn(S(C)(=O)=O)c4)n3)c2)C1 [Compound 232]
< 0.01 | > 0.01 | CS(=O)(=O)n1ccc(C(=O)NCC(=O)Nc2nc(-c3cccc(N4CCC4)c3)cs2)c1 [Compound 233]
> 0.01 | > 0.01 | Cn1ncc2c1CCN(c1cccc(-c3csc(NC(=O)CNC(=O)c4ccn(S(C)(=O)=O)c4)n3)c1)C2 [Compound 234]
> 0.01 | > 0.01 | C[C@@H]1CN(c2cccc(-c3csc(NC(=O)CNC(=O)c4ccn(C5(C)COC5)c4)n3)c2)C[C@H](C)O1 [Compound 235]
> 0.01 | > 0.01 | CC[C@H]1CN(c2cccc(-c3csc(NC(=O)CNC(=O)c4ccn(S(C)(=O)=O)c4)n3)c2)CCO1 [Compound 236]
> 0.01 | > 0.01 | CC[C@@H]1CN(c2cccc(-c3csc(NC(=O)CNC(=O)c4ccn(S(C)(=O)=O)c4)n3)c2)CCO1 [Compound 237]
> 0.01 | > 0.01 | C[C@@H]1CCCN(c2cccc(-c3csc(NC(=O)CNC(=O)c4ccn(S(C)(=O)=O)c4)n3)c2)C1 [Compound 238]
